Like-named read-outs stand apart in the source and are kept apart here.
Test: Evaluation of solubility of thiazolothiazole derivatives in organic solvents
Format: physicochemical
Details: for solubility: organic solvent or mixture, thermodynamic from solid, 25° C., else heated to boiling temperature, naked eye
Description: In the present exemplary embodiment, the term “dissolve” refers to a state in which, after the thiazolothiazole derivative according to the present exemplary embodiment is added to an organic solvent, no crystal is observed by observation with the naked eye. The term “high solubility” or “good solubility” refers to such properties that the thiazolothiazole derivative dissolves at the boiling temperature of the organic solvent.
The solubility test is performed as follows:
10 mg (1.0 weight %) of an exemplary compound to be tested is dissolved in 1 ml of a solvent (such as dichlorobenzene, monochlorobenzene, chloroform, THF, toluene or xylene). […] The degree of dissolution is observed with the naked eye.
A: dissolves even when heating is not conducted
B: completely dissolves when heating is conducted
C: a large proportion thereof dissolves when heating is conducted
D: a small proportion thereof dissolves when heating is conducted

[1] = 10 mg (1.0 weight %) in 1 ml THF, read-out: Solubility THF
[2] = 10 mg (1.0 weight %) in 1 ml chloroform, read-out: Solubility Chloroform
[3] = 10 mg (1.0 weight %) in 1 ml dichlorobenzene, read-out: Solubility Dichlorobenzene
[4] = 10 mg (1.0 weight %) in 1 ml monochlorobenzene, read-out: Solubility Monochlorobenzene
[5] = 10 mg (1.0 weight %) in 1 ml toluene, read-out: Solubility Toluene
[6] = 10 mg (1.0 weight %) in 1 ml xylene, read-out: Solubility Xylene

SMILES | solubility [1] [µg/mL] | solubility [2] [µg/mL] | solubility [3] [µg/mL] | solubility [4] [µg/mL] | solubility [5] [µg/mL] | solubility [6] [µg/mL] | Solubility in organic solvents (in words) (organic solvents, general statement)
c1csc(-c2ccc(-c3nc4sc(-c5ccc(-c6cccs6)s5)nc4s3)s2)c1 [Compound 3, reference compound] | < 10000 | < 10000 | < 10000 | < 10000 | < 10000 | < 10000 | hardly dissolves
CCCCc1ccc(-c2ccc(-c3nc4sc(-c5ccc(-c6ccc(CCCC)cc6)s5)nc4s3)s2)cc1 [Exemplary Compound (1)] | < 10000 | < 10000 | < 10000 | < 10000 | < 10000 | < 10000 | 
CCCCOc1ccc(-c2ccc(-c3nc4sc(-c5ccc(-c6ccc(OCCCC)cc6)s5)nc4s3)s2)cc1 [Exemplary Compound (11)] | < 10000 | < 10000 | < 10000 | < 10000 | < 10000 | < 10000 | 
CCCCCCCCc1ccc(-c2cc(CCCCCCCC)c(-c3nc4sc(-c5sc(-c6ccc(CCCCCCCC)cc6)cc5CCCCCCCC)nc4s3)s2)cc1 [Exemplary Compound (27)] | > 10000 | > 10000 | > 10000 | > 10000 | > 10000 | > 10000 | 
CCCCCCCCc1ccc(-c2cc(C)c(-c3nc4sc(-c5sc(-c6ccc(CCCCCCCC)cc6)cc5C)nc4s3)s2)cc1 [Exemplary Compound (8)] | > 10000 | < 10000 | > 10000 | > 10000 | < 10000 | < 10000 | 
CCCCCCCCCCCCc1ccc(-c2cc(CCCCCCCC)c(-c3nc4sc(-c5sc(-c6ccc(CCCCCCCCCCCC)cc6)cc5CCCCCCCC)nc4s3)s2)cc1 [Exemplary Compound (28)] | > 10000 | > 10000 | > 10000 | > 10000 | > 10000 | > 10000 | 
CCCCCCCCc1cc(-c2ccc(CCCC)cc2)sc1-c1nc2sc(-c3sc(-c4ccc(CCCC)cc4)cc3CCCCCCCC)nc2s1 [Exemplary Compound (25)] | > 10000 | > 10000 | > 10000 | > 10000 | > 10000 | > 10000 | 
CC(C)(C)c1ccc(-c2ccc(-c3nc4sc(-c5ccc(-c6ccc(C(C)(C)C)cc6)s5)nc4s3)s2)cc1 [Exemplary Compound (15)] | < 10000 | < 10000 | < 10000 | < 10000 | < 10000 | < 10000 | 

Reference: US7812172B2, “Thiazolothiazole derivative” (Fuji Xerox Co., Ltd., priority 2008, dated 2010)
